In one assay the test system is L1210. The assay is described as follows: Cytotoxicity against mouse L1210 cells after 4 hrs by MTT assay. The format is functional.
Assay [1] deals with Proto-oncogene tyrosine-protein kinase Src (Homo sapiens) (UniProt P12931). The assay is described as follows: Inhibition of Src at 10 uM after 20 mins.

The source of these data is ChEMBL document CHEMBL1629470, “Synthesis, biological evaluation and docking studies of 4-amino-tetrahydroquinazolino[3,2-e]purine derivatives” (Eur J Med Chem, 2010).

In general, inhibition refers to the change of the read-out against control, counted positive when it falls. Read a high inhibition as strong suppression.

The structures appear in SMILES notation.

Chain of Proto-oncogene tyrosine-protein kinase Src (Homo sapiens) (P12931 2-536 limits assumed): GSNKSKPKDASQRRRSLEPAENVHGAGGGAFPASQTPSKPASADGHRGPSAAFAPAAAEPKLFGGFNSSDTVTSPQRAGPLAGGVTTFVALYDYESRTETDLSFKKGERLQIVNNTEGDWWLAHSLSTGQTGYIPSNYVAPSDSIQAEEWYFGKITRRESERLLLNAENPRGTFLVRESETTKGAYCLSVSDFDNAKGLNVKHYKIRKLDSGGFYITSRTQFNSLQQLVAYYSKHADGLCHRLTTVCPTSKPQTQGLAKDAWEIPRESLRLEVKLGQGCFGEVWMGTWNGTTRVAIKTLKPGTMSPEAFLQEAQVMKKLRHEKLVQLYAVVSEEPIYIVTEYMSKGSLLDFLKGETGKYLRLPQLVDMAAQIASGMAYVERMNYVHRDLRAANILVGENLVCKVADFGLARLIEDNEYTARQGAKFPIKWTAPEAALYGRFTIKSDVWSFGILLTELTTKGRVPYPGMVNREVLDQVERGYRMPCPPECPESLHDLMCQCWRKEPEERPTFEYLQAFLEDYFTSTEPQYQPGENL

On to `Nc1ncnc2c1nc1n2Cc2ccccc2N1`, for which the Activity in the assay on L1210 was determined as 7.3 µM. In addition, the inhibition in assay [1] was found to be 72%.
On the same counts, the results for `Nc1nc(Cl)nc2c1nc1n2Cc2ccccc2N1` are 23 µM and 49%.
On the same counts, the results for `CCN(CC)CCN1c2ccccc2Cn2c1nc1c(Nc3ccccc3)ncnc12.Cl` are 17.9 µM and 0%.
On the same counts, the results for `Cl.c1ccc(Nc2ncnc3c2nc2n3Cc3ccccc3N2CCN2CCOCC2)cc1` are 16.1 µM and 15%.
In the assay on L1210, `Brc1ccccc1Nc1ncnc2c1nc1n2Cc2ccccc2N1CCN1CCOCC1.Cl` came in with an Activity of 21.9 µM. This molecule showed an inhibition in assay [1] of 30%.
For the molecule `Cl.c1ccc(CNc2ncnc3c2nc2n3Cc3ccccc3N2CCN2CCOCC2)cc1`, in the assay with L1210, the Activity is 31 µM. For the same molecule, the inhibition in assay [1] is 9%.
In the assay on L1210, `Cl.Clc1ccccc1Nc1ncnc2c1nc1n2Cc2ccccc2N1CCN1CCOCC1` yielded an Activity of 11.9 µM. In assay [1], this molecule returned an inhibition of 20%.
In turn, `c1ccc(Nc2ncnc3c2nc2n3Cc3ccccc3N2)cc1` registered an Activity in the assay with L1210 of 34.3 µM. In assay [1], this molecule registered an inhibition of 58%.
